Counter-ions that a name gives are not always drawn.
Tests used:
rumen fluid = assay: in vitro rumen technique, propionic acid production; design: species or system cow; conditions: 10 μg./ml.
Description: The value of animal feeds generally has been determined directly by feeding the animal. British Patent Specification No. 1,197,826 details an in vitro rumen technique whereby the changes occurring in feeds brought about by microorganisms are measured more readily and with great accuracy in the evaluation of animal feeds. This technique involves the use of an apparatus in which the digestive processes of the animals are conducted and studied in vitro. The animal feeds, rumen inoculum and various growth promotants are introduced into and withdrawn from a laboratory unit under carefully controlled conditions and the changes taken place are studied critically and progressively during the consumption of the feed by the microorganisms. […] The change in propionic acid content is expressed as percent of the propionic acid content found in the control rumen fluid. Long term in vivo feeding studies are used to show a reliable correlation between propionic acid increase in the rumen fluid and improved animal performance.
Rumen fluid is collected from a fistulated cow which is fed on a commercial fattening ration plus hay. The rumen fluid is immediately filtered through cheese cloth, and 10 ml added to a 50 ml conical flask containing 400 mg. of standard substrate (68% corn starch+17% cellulose+15% extracted soybean meal), 10 ml. of a pH 6.8 buffer and the test compound. The flasks are gassed with oxygen free nitrogen for about two minutes, and incubated in a shaking water bath at 39° C. for about 16 hours. All tests are conducted in triplicate.
After incubation, 5 ml. of the sample is mixed with 1 ml. of 25% metaphosphoric acid. After 10 minutes 0.25 ml. of formic acid is added and the mixture centrifuged at 1,500 r.p.m. for 10 minutes. Samples are then analyzed by gas-liquid chromatograhy by the method of D. W. Kellog, J. Dairy Science, 52, 1690 (1969). Peak heights for acetic, propionic and butyric acids are determined for samples from untreated and treated incubation flasks.

Bacillus subtilis = assay: in vitro MIC test; assay type: cell-based; conditions: strain 06A001, 24 hours
Description: (§1) In Table I, below, the results of in vitro MIC tests are summarized. For this test each organism is inoculated in a series of test tubes containing nutrient medium and varying concentrations of Compound 53,607 to determine the minimal concentration of the antibiotic in mcg/ml which inhibits the growth of the organism over a period of 24 hours (MIC).

Bacteroides vulgatis = assay: in vitro MIC test; assay type: cell-based; conditions: strain 78E032, 24 hours
Description: as §1

Pasteurella multocida = assay: in vitro MIC test; assay type: cell-based; conditions: strain 59A001, 24 hours
Description: as §1

Staphylococcus aureus = assay: in vitro MIC test; assay type: cell-based; conditions: 24 h
Description: as §1

[1] = test system: Staphylococcus epidermidis; assay: in vitro MIC test; assay type: cell-based; conditions: 24 h
Description: as §1

Streptococcus faecalis = assay: in vitro MIC test; assay type: cell-based; conditions: Enterococcus faecalis; strain 02A006, 24 hours
Description: as §1

Corynebacterium pyogenes = assay: in vitro MIC test; assay type: cell-based; conditions: Rhodococcus (subgen. Prescottella) equi; strain 11D001, 24 hours
Description: as §1

Haemophilus influenza = assay: in vitro MIC test; assay type: cell-based; conditions: 24 h
Description: as §1

Treponema hyodysenteriae = assay: in vitro MIC test; assay type: cell-based; conditions: Brachyspira hyodysenteriae, 24 h
Description: as §1

Streptococcus pyogenes = assay: in vitro MIC test; assay type: cell-based; conditions: 24 h
Description: as §1

Neisseria sicca = assay: in vitro MIC test; assay type: cell-based; conditions: strain 66C000, 24 hours
Description: as §1

[2] = test system: Fusobacterium necrophorum; assay: in vitro MIC test; assay type: cell-based; conditions: strain 84C004, 24 hours
Description: as §1

Bacteroides fragilis = assay: in vitro MIC test; assay type: cell-based; conditions: 24 h
Description: as §1

Clostridium perfringens = assay: microbe, parasite or virus in culture; assay type: cell-based

CC[C@@]1([C@@H]2O[C@@H]([C@H]3O[C@@](O)(CO)[C@H](C)C[C@@H]3C)C[C@@H]2C)CC[C@H]([C@]2(C)CC[C@]3(C[C@H](O)[C@@H](C)[C@@H]([C@@H](C)[C@@H](OC)[C@H](C)C(=O)O)O3)O2)O1 [Monensin, reference compound]
increase of propionic acid over the control (rumen fluid): about 20%

CC(=CC(C)C1OC2(CCC(C)(C3CCC(C)C4(OC(C5OC(O)(CO)C(C)CC5C)CC4C)O3)O2)CC(O)C1C)C(=O)C(C)CC(C)C(=O)O (centres unmarked) [53,607 (sodium salt)]
MIC (Bacillus subtilis): 0.39 µg/mL | MIC (Bacteroides vulgatis): 3.12 µg/mL | MIC (Pasteurella multocida): > 200 µg/mL | MIC (Staphylococcus aureus; strain 01A005, 24 hours): 0.78 µg/mL | MIC (Staphylococcus aureus; strain 01A052, 24 hours): 0.78 µg/mL | MIC (Staphylococcus aureus; strain 01A110, 24 hours): 1.56 µg/mL | MIC (Staphylococcus aureus; strain 01A400, 24 hours): 1.56 µg/mL | MIC ([1]; strain 01B087R): 0.78 µg/mL | MIC ([1]; strain 01B111RR): 0.78 µg/mL | MIC ([1]; strain 01B126, 24 hours): 1.56 µg/mL | MIC (Streptococcus faecalis): 1.56 µg/mL | MIC (Corynebacterium pyogenes): 25 µg/mL | MIC (Haemophilus influenza; strain 54A036, 24 hours): 6.25 µg/mL | MIC (Haemophilus influenza; strain 54A037, 24 hours): 3.12 µg/mL | MIC (Haemophilus influenza; strain 54A059, 24 hours): 12.5 µg/mL | MIC (Treponema hyodysenteriae; strain 94A001, 24 hours): 0.39 µg/mL | MIC (Treponema hyodysenteriae; strain 94A002, 24 hours): 0.098 µg/mL | MIC (Streptococcus pyogenes): < 0.01 µg/mL | MIC (Neisseria sicca): 25 µg/mL | MIC [2]: 3.12 µg/mL | MIC (Bacteroides fragilis; strain 78C004, 24 hours): 12.5 µg/mL | MIC (Bacteroides fragilis; strain 78C009, 24 hours): 6.25 µg/mL | MIC (Bacteroides fragilis; strain 78C010, 24 hours): 6.25 µg/mL | MIC (Clostridium perfringens; Clostridium perfringens, 24 h): 0.98 µg/mL | MIC (Clostridium perfringens; strain 10A003, 24 hours): 0.98 µg/mL

From patent US4533553A, “Polycyclic ether antibiotic” (priority 1983, dated 1985)
